In PubChem BioAssay (NCI):
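Cultured in 96-well plates, cells were exposed to test compound for 48 hours across five concentrations. Definition used: TGI = concentration required for complete inhibition of growth.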

What follows are compounds tested on IGROV1 ovarian (assay: growth of human tumour cells (NCI), 48 h).

Point of comparison: `Cc1c(N=Nc2ccccc2)c(-c2ccccc2)n(C2OC(CO)C(O)C(O)C2O)c(=S)c1C#N` (stereo not drawn), TGI 22.5 µM. Against it:
- CC(=O)Nc1ccc(-c2nc3ccccc3s2)cc1Br — within 1.5-fold, 17.4 µM
- CC(NC(=O)OCc1ccccc1)NC(=O)OC(C)(C)C (stereo not drawn) — higher, > 100 µM
- COc1nn(Cc2ccccn2)c2ccc([N+](=O)[O-])cc12 — higher, > 100 µM
- O=C(Nc1ccc(Cl)cc1)c1cc(S(=O)(=O)Nc2n[nH]c(Nc3ccc4ccccc4c3)n2)c(SSc2cc(Cl)c(C(=O)Nc3ccc(Cl)cc3)cc2S(=O)(=O)Nc2n[nH]c(Nc3ccc4ccccc4c3)n2)cc1Cl — 2.5-fold higher, 56.1 µM
- CC1=NN(c2ccccc2)C2(C1)C(Cl)C(=O)N2c1nc2ccccc2s1 (stereo not drawn) — higher, > 100 µM

These compounds were tested on COLO 205 colon (assay: growth of human tumour cells (NCI), 48 h).

Point of comparison: `Cc1c(N=Nc2ccccc2)c(-c2ccccc2)n(C2OC(CO)C(O)C(O)C2O)c(=S)c1C#N` (stereo not drawn), TGI 31.3 µM. Against it:
- CC(=O)Nc1ccc(-c2nc3ccccc3s2)cc1Br — higher, > 100 µM
- CC(NC(=O)OCc1ccccc1)NC(=O)OC(C)(C)C (stereo not drawn) — higher, > 100 µM
- COc1nn(Cc2ccccn2)c2ccc([N+](=O)[O-])cc12 — higher, > 100 µM
- O=C(Nc1ccc(Cl)cc1)c1cc(S(=O)(=O)Nc2n[nH]c(Nc3ccc4ccccc4c3)n2)c(SSc2cc(Cl)c(C(=O)Nc3ccc(Cl)cc3)cc2S(=O)(=O)Nc2n[nH]c(Nc3ccc4ccccc4c3)n2)cc1Cl — within 1.5-fold, 38.8 µM
- CC1=NN(c2ccccc2)C2(C1)C(Cl)C(=O)N2c1nc2ccccc2s1 (stereo not drawn) — 2.6-fold higher, 80.6 µM

The compounds below were run on PC-3 prostate (assay: growth of human tumour cells (NCI), 48 h).

Point of comparison: `Cc1c(N=Nc2ccccc2)c(-c2ccccc2)n(C2OC(CO)C(O)C(O)C2O)c(=S)c1C#N` (stereo not drawn), TGI 15.6 µM. Against it:
- CC(=O)Nc1ccc(-c2nc3ccccc3s2)cc1Br — higher, > 100 µM
- CC(NC(=O)OCc1ccccc1)NC(=O)OC(C)(C)C (stereo not drawn) — higher, > 100 µM
- COc1nn(Cc2ccccn2)c2ccc([N+](=O)[O-])cc12 — higher, > 100 µM
- O=C(Nc1ccc(Cl)cc1)c1cc(S(=O)(=O)Nc2n[nH]c(Nc3ccc4ccccc4c3)n2)c(SSc2cc(Cl)c(C(=O)Nc3ccc(Cl)cc3)cc2S(=O)(=O)Nc2n[nH]c(Nc3ccc4ccccc4c3)n2)cc1Cl — 4.4-fold higher, 69.1 µM
- CC1=NN(c2ccccc2)C2(C1)C(Cl)C(=O)N2c1nc2ccccc2s1 (stereo not drawn) — higher, > 100 µM

What follows are compounds tested on OVCAR-4 ovarian (assay: growth of human tumour cells (NCI), 48 h).

Point of comparison: `O=C(Nc1ccc(Cl)cc1)c1cc(S(=O)(=O)Nc2n[nH]c(Nc3ccc4ccccc4c3)n2)c(SSc2cc(Cl)c(C(=O)Nc3ccc(Cl)cc3)cc2S(=O)(=O)Nc2n[nH]c(Nc3ccc4ccccc4c3)n2)cc1Cl`, TGI 97.5 µM. Against it:
- CC(=O)Nc1ccc(-c2nc3ccccc3s2)cc1Br — higher, > 100 µM
- CC(NC(=O)OCc1ccccc1)NC(=O)OC(C)(C)C (stereo not drawn) — higher, > 100 µM
- COc1nn(Cc2ccccn2)c2ccc([N+](=O)[O-])cc12 — higher, > 100 µM
- CC1=NN(c2ccccc2)C2(C1)C(Cl)C(=O)N2c1nc2ccccc2s1 (stereo not drawn) — higher, > 100 µM
- Cc1c(N=Nc2ccccc2)c(-c2ccccc2)n(C2OC(CO)C(O)C(O)C2O)c(=S)c1C#N (stereo not drawn) — 3.7-fold lower, 26.1 µM

These compounds were tested on HS 578T breast (assay: growth of human tumour cells (NCI), 48 h).

Point of comparison: `CC(=O)Nc1ccc(-c2nc3ccccc3s2)cc1Br`, TGI 69.1 µM. Against it:
- CC(NC(=O)OCc1ccccc1)NC(=O)OC(C)(C)C (stereo not drawn) — higher, > 100 µM
- COc1nn(Cc2ccccn2)c2ccc([N+](=O)[O-])cc12 — within 1.5-fold, 88 µM
- O=C(Nc1ccc(Cl)cc1)c1cc(S(=O)(=O)Nc2n[nH]c(Nc3ccc4ccccc4c3)n2)c(SSc2cc(Cl)c(C(=O)Nc3ccc(Cl)cc3)cc2S(=O)(=O)Nc2n[nH]c(Nc3ccc4ccccc4c3)n2)cc1Cl — higher, > 100 µM
- CC1=NN(c2ccccc2)C2(C1)C(Cl)C(=O)N2c1nc2ccccc2s1 (stereo not drawn) — higher, > 100 µM
- Cc1c(N=Nc2ccccc2)c(-c2ccccc2)n(C2OC(CO)C(O)C(O)C2O)c(=S)c1C#N (stereo not drawn) — higher, > 100 µM

These compounds were tested on RPMI-8226 leukemia (assay: growth of human tumour cells (NCI), 48 h).

Point of comparison: `CC1=NN(c2ccccc2)C2(C1)C(Cl)C(=O)N2c1nc2ccccc2s1` (stereo not drawn), TGI 67.2 µM. Against it:
- CC(=O)Nc1ccc(-c2nc3ccccc3s2)cc1Br — higher, > 100 µM
- CC(NC(=O)OCc1ccccc1)NC(=O)OC(C)(C)C (stereo not drawn) — higher, > 100 µM
- COc1nn(Cc2ccccn2)c2ccc([N+](=O)[O-])cc12 — higher, > 100 µM
- O=C(Nc1ccc(Cl)cc1)c1cc(S(=O)(=O)Nc2n[nH]c(Nc3ccc4ccccc4c3)n2)c(SSc2cc(Cl)c(C(=O)Nc3ccc(Cl)cc3)cc2S(=O)(=O)Nc2n[nH]c(Nc3ccc4ccccc4c3)n2)cc1Cl — higher, > 74.7 µM
- Cc1c(N=Nc2ccccc2)c(-c2ccccc2)n(C2OC(CO)C(O)C(O)C2O)c(=S)c1C#N (stereo not drawn) — higher, > 100 µM

What follows are compounds tested on UO-31 renal (assay: growth of human tumour cells (NCI), 48 h).

Point of comparison: `Cc1c(N=Nc2ccccc2)c(-c2ccccc2)n(C2OC(CO)C(O)C(O)C2O)c(=S)c1C#N` (stereo not drawn), TGI 39.4 µM. Against it:
- CC(=O)Nc1ccc(-c2nc3ccccc3s2)cc1Br — higher, > 100 µM
- CC(NC(=O)OCc1ccccc1)NC(=O)OC(C)(C)C (stereo not drawn) — higher, > 100 µM
- COc1nn(Cc2ccccn2)c2ccc([N+](=O)[O-])cc12 — higher, > 100 µM
- O=C(Nc1ccc(Cl)cc1)c1cc(S(=O)(=O)Nc2n[nH]c(Nc3ccc4ccccc4c3)n2)c(SSc2cc(Cl)c(C(=O)Nc3ccc(Cl)cc3)cc2S(=O)(=O)Nc2n[nH]c(Nc3ccc4ccccc4c3)n2)cc1Cl — 1.7-fold higher, 65.3 µM
- CC1=NN(c2ccccc2)C2(C1)C(Cl)C(=O)N2c1nc2ccccc2s1 (stereo not drawn) — higher, > 100 µM

Each compound was assayed on KM12 colon (assay: growth of human tumour cells (NCI), 48 h).

With `CC(=O)Nc1ccc(-c2nc3ccccc3s2)cc1Br` the TGI was > 100 µM.
